Source: PubChem BioAssay (NCI)
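Cells were grown in 96-well plates and exposed to each compound for 48 hours at five concentrations; endpoints were interpolated linearly between bracketing concentrations, or set to the highest concentration if not reached. TGI: total growth inhibition.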

What was measured:
Assay in all cases: NCI anticancer screen, dose series, 48 h
KM12 colon = system: KM12 colon
HS 578T breast = system: HS 578T breast
PC-3 prostate = system: PC-3 prostate
UO-31 renal = system: UO-31 renal
HOP-92 NSCLC = system: HOP-92 NSCLC
786-0 renal = system: 786-0 renal
DU-145 prostate = system: DU-145 prostate
HCC-2998 colon = system: HCC-2998 colon
SR leukemia = system: SR leukemia
LOX IMVI melanoma = system: LOX IMVI melanoma
SK-OV-3 ovarian = system: SK-OV-3 ovarian
TK-10 renal = system: TK-10 renal
K-562 leukemia = system: K-562 leukemia
CCRF-CEM leukemia = system: CCRF-CEM leukemia
COLO 205 colon = system: COLO 205 colon
MCF7 breast = system: MCF7 breast
RPMI-8226 leukemia = system: RPMI-8226 leukemia
MDA-MB-435 = system: MDA-MB-435
OVCAR-3 ovarian = system: OVCAR-3 ovarian
NCI-H460 lung = system: NCI-H460 lung
A498 renal = system: A498 renal
UACC-257 melanoma = system: UACC-257 melanoma
SNB-75 CNS = system: SNB-75 CNS
OVCAR-5 ovarian = system: OVCAR-5 ovarian
NCI/ADR-RES ovarian = system: NCI/ADR-RES ovarian
MDA-N = system: MDA-N
M14 melanoma = system: M14 melanoma
NCI-H226 lung = system: NCI-H226 lung
SF-268 CNS = system: SF-268 CNS
NCI-H522 lung = system: NCI-H522 lung
HOP-62 NSCLC = system: HOP-62 NSCLC
SK-MEL-5 melanoma = system: SK-MEL-5 melanoma
SN12C renal = system: SN12C renal
UACC-62 melanoma = system: UACC-62 melanoma
EKVX NSCLC = system: EKVX NSCLC
SF-539 CNS = system: SF-539 CNS
BT-549 breast = system: BT-549 breast
HT29 colon = system: HT29 colon
CAKI-1 renal = system: CAKI-1 renal
SF-295 CNS = system: SF-295 CNS
SK-MEL-28 melanoma = system: SK-MEL-28 melanoma
A549 NSCLC = system: A549 NSCLC
SW-620 colon = system: SW-620 colon
MOLT-4 leukemia = system: MOLT-4 leukemia
U251 CNS = system: U251 CNS
ACHN renal = system: ACHN renal
HCT-116 colon = system: HCT-116 colon
MDA-MB-231 breast = system: MDA-MB-231 breast
SNB-19 CNS = system: SNB-19 CNS
T-47D breast = system: T-47D breast
HL-60(TB) leukemia = system: HL-60(TB) leukemia
NCI-H23 lung = system: NCI-H23 lung
SK-MEL-2 melanoma = system: SK-MEL-2 melanoma
IGROV1 ovarian = system: IGROV1 ovarian
OVCAR-4 ovarian = system: OVCAR-4 ovarian
HCT-15 colon = system: HCT-15 colon
OVCAR-8 ovarian = system: OVCAR-8 ovarian
MALME-3M melanoma = system: MALME-3M melanoma

For Cc1cc(C)n(-c2nc3ccccc3c(=O)[nH]2)n1, the TGI (KM12 colon) was 23.1 µM, the TGI (HS 578T breast) was > 91.5 µM and the TGI (PC-3 prostate) was 25.8 µM. For the same compound, the TGI (UO-31 renal) was 36.8 µM, the TGI (HOP-92 NSCLC) was > 68.3 µM and the TGI (786-0 renal) was 19.6 µM. For the same compound, the TGI (DU-145 prostate) was 21.3 µM, the TGI (HCC-2998 colon) was 31.3 µM and the TGI (SR leukemia) was > 29.5 µM. For the same compound, the TGI (LOX IMVI melanoma) was 13.7 µM, the TGI (SK-OV-3 ovarian) was > 100 µM and the TGI (TK-10 renal) was > 100 µM. The TGI (K-562 leukemia) was > 100 µM, the TGI (CCRF-CEM leukemia) was > 100 µM and the TGI (COLO 205 colon) was 17.1 µM. The TGI (MCF7 breast) was > 100 µM, the TGI (RPMI-8226 leukemia) was > 41.9 µM and the TGI (MDA-MB-435) was 26.9 µM. For the same compound, the TGI (OVCAR-3 ovarian) was > 45 µM, the TGI (NCI-H460 lung) was > 49.3 µM and the TGI (A498 renal) was > 63.8 µM. The TGI (UACC-257 melanoma) was > 100 µM, the TGI (SNB-75 CNS) was > 71.6 µM and the TGI (OVCAR-5 ovarian) was > 100 µM. The TGI (NCI/ADR-RES ovarian) was 13.9 µM, the TGI (MDA-N) was > 76.9 µM and the TGI (M14 melanoma) was > 100 µM. The TGI (NCI-H226 lung) was > 66.8 µM, the TGI (SF-268 CNS) was > 47.1 µM and the TGI (NCI-H522 lung) was 18.8 µM. The TGI (HOP-62 NSCLC) was > 43.7 µM, the TGI (SK-MEL-5 melanoma) was 17.8 µM and the TGI (SN12C renal) was > 100 µM. The TGI (UACC-62 melanoma) was 21.3 µM, the TGI (EKVX NSCLC) was 28.9 µM and the TGI (SF-539 CNS) was > 75 µM. The TGI (BT-549 breast) was > 100 µM, the TGI (HT29 colon) was > 100 µM and the TGI (CAKI-1 renal) was 37.5 µM. For the same compound, the TGI (SF-295 CNS) was > 50.7 µM, the TGI (SK-MEL-28 melanoma) was > 41.2 µM and the TGI (A549 NSCLC) was > 35.5 µM. The TGI (SW-620 colon) was 38.9 µM, the TGI (MOLT-4 leukemia) was 50.5 µM and the TGI (U251 CNS) was > 45.5 µM. For the same compound, the TGI (ACHN renal) was 21.8 µM, the TGI (HCT-116 colon) was 21.6 µM and the TGI (MDA-MB-231 breast) was 25.3 µM. The TGI (SNB-19 CNS) was > 72.1 µM, the TGI (T-47D breast) was 48.8 µM and the TGI (HL-60(TB) leukemia) was > 33.7 µM. The TGI (NCI-H23 lung) was 32.8 µM, the TGI (SK-MEL-2 melanoma) was 32.2 µM and the TGI (IGROV1 ovarian) was 12.4 µM. The TGI (OVCAR-4 ovarian) was > 100 µM and the TGI (HCT-15 colon) was 23.9 µM.

COC(O)C(=O)c1c2c(cc3c1CCC3)CCCC2 (stereo not drawn) was tested, and the TGI (KM12 colon) was 34.1 µM, the TGI (HS 578T breast) was 36.2 µM and the TGI (PC-3 prostate) was 11 µM. For the same compound, the TGI (UO-31 renal) was 31.5 µM, the TGI (786-0 renal) was 27.8 µM and the TGI (DU-145 prostate) was 30.5 µM. For the same compound, the TGI (HCC-2998 colon) was 4.28 µM, the TGI (SR leukemia) was 13.9 µM and the TGI (LOX IMVI melanoma) was 4.95 µM. The TGI (SK-OV-3 ovarian) was 24.6 µM, the TGI (TK-10 renal) was 29.9 µM and the TGI (K-562 leukemia) was 12.7 µM. It also gave a TGI (CCRF-CEM leukemia) of 6.69 µM, a TGI (COLO 205 colon) of 19.3 µM and a TGI (MCF7 breast) of 18 µM. It also gave a TGI (RPMI-8226 leukemia) of 5.63 µM, a TGI (MDA-MB-435) of 36.7 µM and a TGI (OVCAR-3 ovarian) of 14.5 µM. It also gave a TGI (NCI-H460 lung) of 19.7 µM, a TGI (OVCAR-8 ovarian) of 25.4 µM and a TGI (A498 renal) of 18 µM. For the same compound, the TGI (UACC-257 melanoma) was 25.9 µM, the TGI (SNB-75 CNS) was 26 µM and the TGI (OVCAR-5 ovarian) was 36.7 µM. For the same compound, the TGI (NCI/ADR-RES ovarian) was 61.5 µM, the TGI (MDA-N) was 30.4 µM and the TGI (M14 melanoma) was 24.9 µM. The TGI (NCI-H226 lung) was 38 µM, the TGI (SF-268 CNS) was 45.5 µM and the TGI (NCI-H522 lung) was 13.2 µM. For the same compound, the TGI (HOP-62 NSCLC) was 33.3 µM, the TGI (SK-MEL-5 melanoma) was 9.47 µM and the TGI (SN12C renal) was 19.5 µM. The TGI (UACC-62 melanoma) was 12.3 µM, the TGI (EKVX NSCLC) was 31.1 µM and the TGI (SF-539 CNS) was 16.6 µM. The TGI (BT-549 breast) was 6.41 µM, the TGI (HT29 colon) was 12.9 µM and the TGI (CAKI-1 renal) was 28.3 µM. For the same compound, the TGI (MALME-3M melanoma) was 27.8 µM, the TGI (SF-295 CNS) was 26 µM and the TGI (SK-MEL-28 melanoma) was 26.4 µM. For the same compound, the TGI (A549 NSCLC) was 40.9 µM, the TGI (SW-620 colon) was 12.3 µM and the TGI (MOLT-4 leukemia) was 14.2 µM. It also gave a TGI (U251 CNS) of 27.8 µM, a TGI (ACHN renal) of 21 µM and a TGI (HCT-116 colon) of 4.6 µM. For the same compound, the TGI (MDA-MB-231 breast) was 27.6 µM, the TGI (SNB-19 CNS) was 32.8 µM and the TGI (T-47D breast) was 44.2 µM. It also gave a TGI (HL-60(TB) leukemia) of 4.31 µM, a TGI (NCI-H23 lung) of 31.7 µM and a TGI (SK-MEL-2 melanoma) of 30.2 µM. For the same compound, the TGI (IGROV1 ovarian) was 14 µM, the TGI (OVCAR-4 ovarian) was 17.5 µM and the TGI (HCT-15 colon) was 13.8 µM.
